Source: patent publication US12252524B2, “GIP/GLP1 co-agonist compounds” (Eli Lilly and Company, priority 2018, dated 2025)
Numbered stars: 1 amine (or outer) side, 2 acyl side, 3 side chain; on linkers, the order of the positions; unused ones are H or OH. Square brackets hold non-standard residues; d marks the D form. Side chains are listed from the residue outwards. Peptide text beside a SMILES is read from it. * marks the point of attachment. C18 diacid = O=C(O)CCCCCCCCCCCCCCCCC(=O)*; αMePhe(2-F) = C[C@](N)(Cc1ccccc1F)C(=O)O; γGlu = O=C(O)[C@H](CCC(=O)[*:2])N[*:1]; AEEA = NCCOCCOCC(=O)O; Aib = CC(C)(N)C(=O)O

Assays:
human Gcg receptor = molecular target: T1, human Gcg receptor (Homo sapiens, UniProt P47871); test: [125I]-Glucagon binding (SPA), human Gcg receptor; conditions: read-out: hGLcgR Ki, nM (SEM, n)
T1 construct: expressed in transfected cells; crude membranes
Procedure, shortened: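 Scintillation counts are taken after membranes and WGA beads incubate and settle for 12 hours at room temperature. Buffer is 25 mM HEPES, pH 7.4, with CaCl2, MgCl2, bacitracin and Tween-20. Ki values, from four-parameter IC50 fits, are geometric means over independent days.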

human GIP receptor = molecular target: T2, human GIP receptor (Homo sapiens, UniProt P48546); test: [125I]-GIP binding (SPA), human GIP receptor; conditions: read-out: hGIPR Ki, nM (SEM, n)
T2 construct: expressed in transfected cells; crude membranes
T2 sequence (P48546 22-466): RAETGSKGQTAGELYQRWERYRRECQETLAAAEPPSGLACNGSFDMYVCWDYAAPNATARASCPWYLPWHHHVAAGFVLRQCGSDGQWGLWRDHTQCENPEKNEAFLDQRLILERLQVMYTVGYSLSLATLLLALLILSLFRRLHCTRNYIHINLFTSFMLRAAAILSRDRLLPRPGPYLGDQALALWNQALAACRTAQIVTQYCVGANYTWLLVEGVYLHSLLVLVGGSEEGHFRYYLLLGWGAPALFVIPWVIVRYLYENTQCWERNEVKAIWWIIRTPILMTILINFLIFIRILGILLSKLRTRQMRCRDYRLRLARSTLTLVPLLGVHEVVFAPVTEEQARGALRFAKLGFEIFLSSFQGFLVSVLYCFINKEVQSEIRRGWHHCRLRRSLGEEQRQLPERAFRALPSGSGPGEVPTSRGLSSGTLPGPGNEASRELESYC

[1] = molecular target: human GLP-1 receptor (GLP-1R) (Homo sapiens, UniProt P43220); test: cAMP pharmacological functional assay in presence of casein, hGLP-1R; type: cell-based; conditions: HEK293 cells expressing hGLP-1R, 0.1% Casein, geometric mean; read-out: hGLP1R cAMP Rel EC50 nM (SEM, n)
[2] = molecular target: T3, gastric inhibitory peptide receptor (GIPR) (Homo sapiens, UniProt P48546); test: cAMP pharmacological functional assay in presence of casein, hGIPR; type: cell-based; conditions: HEK293 cells expressing hGIPR, 0.1% Casein, geometric mean; read-out: hGIPR cAMP Rel EC50 nM (SEM, n)
T3 sequence (P48546 22-466): T2 sequence (P48546 22-466)

human GLP-1R = human GLP-1R (Homo sapiens, UniProt P43220); test: [125I]-GLP-1 binding (SPA), human GLP-1 receptor; set-up: expressed in transfected cells; crude membranes; conditions: read-out: hGLP1R Ki, (nM) (SEM, n)
Procedure, shortened: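 Assay buffer: HEPES 25 mM, pH 7.4, CaCl2 2.5 mM, MgCl2 1 mM, with EDTA-free protease inhibitors. Receptor came from crude cell membranes prepared by homogenization and centrifugation at 4° C. IC50s came from four-parameter fits (maximum, minimum, IC50, Hill slope) and were expressed as Ki geometric means with SEM.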

T1 sequence (P47871 26-477): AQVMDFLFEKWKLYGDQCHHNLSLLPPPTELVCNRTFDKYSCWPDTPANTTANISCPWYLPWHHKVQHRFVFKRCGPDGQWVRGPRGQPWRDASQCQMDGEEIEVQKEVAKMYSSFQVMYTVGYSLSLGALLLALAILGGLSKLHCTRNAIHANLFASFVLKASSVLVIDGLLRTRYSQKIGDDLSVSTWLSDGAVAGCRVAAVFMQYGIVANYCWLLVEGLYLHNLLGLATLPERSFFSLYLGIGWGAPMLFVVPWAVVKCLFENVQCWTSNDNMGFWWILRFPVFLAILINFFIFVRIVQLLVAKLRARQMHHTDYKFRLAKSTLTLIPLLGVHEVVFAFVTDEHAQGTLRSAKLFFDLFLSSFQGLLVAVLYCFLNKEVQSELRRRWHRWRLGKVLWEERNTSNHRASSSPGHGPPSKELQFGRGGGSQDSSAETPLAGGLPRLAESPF
Chain of human GLP-1 receptor (GLP-1R) (P43220 24-463): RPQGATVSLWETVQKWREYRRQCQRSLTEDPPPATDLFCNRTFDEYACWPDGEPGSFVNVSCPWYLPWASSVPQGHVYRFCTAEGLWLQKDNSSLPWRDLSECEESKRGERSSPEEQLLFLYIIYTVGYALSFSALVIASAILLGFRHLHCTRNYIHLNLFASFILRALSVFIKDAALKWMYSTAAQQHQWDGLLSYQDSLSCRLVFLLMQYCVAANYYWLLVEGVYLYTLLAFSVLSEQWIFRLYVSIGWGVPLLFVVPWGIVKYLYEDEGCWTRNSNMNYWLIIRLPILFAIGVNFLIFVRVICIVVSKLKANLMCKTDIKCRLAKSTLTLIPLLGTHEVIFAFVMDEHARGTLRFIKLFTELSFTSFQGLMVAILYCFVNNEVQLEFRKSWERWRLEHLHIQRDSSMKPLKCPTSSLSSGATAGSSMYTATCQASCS
Chain of human GLP-1R (P43220 24-463): as above

Ki (human Gcg receptor) [nM] | Ki (human GIP receptor) [nM] | EC50 [1] [nM] | EC50 [2] [nM] | Ki (human GLP-1R) [nM] | Structure (SMILES)
106 | 0.0348 | 0.0262 | 0.0207 | 1.63 | CC[C@H](C)[C@H](NC(=O)[C@H](CC(C)C)NC(=O)[C@H](Cc1ccc(O)cc1)NC(=O)[C@H](CCC(=O)O)NC(=O)[C@@H](NC(=O)[C@H](Cc1ccccc1)NC(=O)[C@H](CCC(=O)O)NC(=O)C(C)(C)NC(=O)[C@H](CCC(N)=O)NC(=O)[C@H](C)NC(=O)[C@H](CCCCNC(=O)COCCOCCNC(=O)COCCOCCNC(=O)CC[C@H](NC(=O)CCCCCCCCCCCCCCCCC(=O)O)C(=O)O)NC(=O)[C@H](CCCCN)NC(=O)[C@H](CC(=O)O)NC(=O)[C@H](CC(C)C)NC(=O)[C@H](CC(C)C)NC(=O)[C@@H](NC(=O)[C@H](CO)NC(=O)[C@H](Cc1ccc(O)cc1)NC(=O)[C@H](CC(=O)O)NC(=O)[C@H](CO)NC(=O)[C@@H](NC(=O)[C@](C)(Cc1ccccc1F)NC(=O)[C@@H](NC(=O)CNC(=O)[C@H](CCC(=O)O)NC(=O)C(C)(C)NC(=O)[C@@H](N)Cc1ccc(O)cc1)[C@@H](C)O)[C@@H](C)O)[C@@H](C)CC)[C@@H](C)CC)C(=O)N[C@@H](CCC(=O)O)C(=O)NCC(=O)NCC(=O)N1CCC[C@H]1C(=O)N[C@@H](CO)C(=O)N[C@@H](CO)C(=O)NCC(N)=O [Example 312] (H-Y[Aib]EGT[αMePhe(2-F)]TSDYSILLDKK([AEEA-AEEA-γGlu-C18 diacid])AQ[Aib]EFIEYLIEGGPSSG-NH2)
27.6 | 0.0261 | 0.0388 | 0.0233 | 0.815 | CC[C@H](C)[C@H](NC(=O)[C@H](CC(C)C)NC(=O)[C@H](Cc1ccc(O)cc1)NC(=O)[C@H](CCC(=O)O)NC(=O)[C@@H](NC(=O)[C@H](Cc1ccccc1)NC(=O)[C@H](C)NC(=O)C(C)(C)NC(=O)[C@H](CCC(N)=O)NC(=O)[C@H](C)NC(=O)[C@H](CCCCNC(=O)COCCOCCNC(=O)COCCOCCNC(=O)CC[C@H](NC(=O)CCCCCCCCCCCCCCCCC(=O)O)C(=O)O)NC(=O)[C@H](CCCCN)NC(=O)[C@H](CC(=O)O)NC(=O)[C@H](CC(C)C)NC(=O)[C@H](CC(C)C)NC(=O)[C@@H](NC(=O)[C@H](CO)NC(=O)[C@H](Cc1ccc(O)cc1)NC(=O)[C@H](CC(=O)O)NC(=O)[C@H](CO)NC(=O)[C@@H](NC(=O)[C@](C)(Cc1ccccc1F)NC(=O)[C@@H](NC(=O)CNC(=O)[C@H](CCC(=O)O)NC(=O)C(C)(C)NC(=O)[C@@H](N)Cc1ccc(O)cc1)[C@@H](C)O)[C@@H](C)O)[C@@H](C)CC)[C@@H](C)CC)C(=O)N[C@@H](C)C(=O)NCC(=O)NCC(=O)N1CCC[C@H]1C(=O)N[C@@H](CO)C(=O)N[C@@H](CO)C(=O)NCC(N)=O [Example 313] (H-Y[Aib]EGT[αMePhe(2-F)]TSDYSILLDKK([AEEA-AEEA-γGlu-C18 diacid])AQ[Aib]AFIEYLIAGGPSSG-NH2)
116 | 0.027 | 0.029 | 0.029 | 0.717 | CC[C@H](C)[C@H](NC(=O)[C@H](CC(C)C)NC(=O)[C@H](Cc1ccc(O)cc1)NC(=O)[C@H](CCC(=O)O)NC(=O)[C@@H](NC(=O)[C@H](Cc1ccccc1)NC(=O)[C@H](CCC(=O)O)NC(=O)C(C)(C)NC(=O)[C@H](CCC(N)=O)NC(=O)[C@H](C)NC(=O)[C@H](CCCCNC(=O)COCCOCCNC(=O)COCCOCCNC(=O)CC[C@H](NC(=O)CCCCCCCCCCCCCCCCC(=O)O)C(=O)O)NC(=O)[C@H](CCCCN)NC(=O)[C@H](CC(=O)O)NC(=O)[C@H](CC(C)C)NC(=O)[C@H](CC(C)C)NC(=O)[C@@H](NC(=O)[C@H](CO)NC(=O)[C@H](Cc1ccc(O)cc1)NC(=O)[C@H](CC(=O)O)NC(=O)[C@H](CO)NC(=O)[C@@H](NC(=O)[C@](C)(Cc1ccccc1F)NC(=O)[C@@H](NC(=O)CNC(=O)[C@H](CCC(=O)O)NC(=O)C(C)(C)NC(=O)[C@@H](N)Cc1ccc(O)cc1)[C@@H](C)O)[C@@H](C)O)[C@@H](C)CC)[C@@H](C)CC)C(=O)N[C@@H](C)C(=O)NCC(=O)NCC(=O)N1CCC[C@H]1C(=O)N[C@@H](CO)C(=O)N[C@@H](CO)C(=O)NCC(N)=O [Example 314] (H-Y[Aib]EGT[αMePhe(2-F)]TSDYSILLDKK([AEEA-AEEA-γGlu-C18 diacid])AQ[Aib]EFIEYLIAGGPSSG-NH2)
> 1040 | 0.136 | 0.397 | 0.161 | 5.17 | CC[C@H](C)[C@H](NC(=O)[C@H](CC(C)C)NC(=O)[C@H](Cc1ccc(O)cc1)NC(=O)[C@H](CCC(=O)O)NC(=O)[C@@H](NC(=O)[C@H](Cc1ccccc1)NC(=O)[C@H](CC(=O)O)NC(=O)C(C)(C)NC(=O)[C@H](CCC(N)=O)NC(=O)[C@H](C)NC(=O)[C@H](CCCCNC(=O)COCCOCCNC(=O)COCCOCCNC(=O)CC[C@H](NC(=O)CCCCCCCCCCCCCCCCC(=O)O)C(=O)O)NC(=O)[C@H](CCCCN)NC(=O)[C@H](CC(=O)O)NC(=O)[C@H](CC(C)C)NC(=O)[C@H](CC(C)C)NC(=O)[C@@H](NC(=O)[C@H](CO)NC(=O)[C@H](Cc1ccc(O)cc1)NC(=O)[C@H](CC(=O)O)NC(=O)[C@H](CO)NC(=O)[C@@H](NC(=O)[C@H](Cc1ccccc1)NC(=O)[C@@H](NC(=O)CNC(=O)[C@H](CCC(=O)O)NC(=O)C(C)(C)NC(=O)[C@@H](N)Cc1ccc(O)cc1)[C@@H](C)O)[C@@H](C)O)[C@@H](C)CC)[C@@H](C)CC)C(=O)N[C@@H](CCC(=O)O)C(=O)NCC(=O)NCC(=O)N1CCC[C@H]1C(=O)N[C@@H](CO)C(=O)N[C@@H](CO)C(=O)NCC(N)=O [Example 320] (H-Y[Aib]EGTFTSDYSILLDKK([AEEA-AEEA-γGlu-C18 diacid])AQ[Aib]DFIEYLIEGGPSSG-NH2; N-terminus assumed)
770 | 0.064 | 0.204 | 0.0752 | 4.2 | CC[C@H](C)[C@H](NC(=O)[C@H](CC(C)C)NC(=O)[C@H](Cc1ccc(O)cc1)NC(=O)[C@H](CCC(=O)O)NC(=O)[C@@H](NC(=O)[C@H](Cc1ccccc1)NC(=O)[C@@H](NC(=O)C(C)(C)NC(=O)[C@H](CCC(N)=O)NC(=O)[C@H](C)NC(=O)[C@H](CCCCNC(=O)COCCOCCNC(=O)COCCOCCNC(=O)CC[C@H](NC(=O)CCCCCCCCCCCCCCCCC(=O)O)C(=O)O)NC(=O)[C@H](CCCCN)NC(=O)[C@H](CC(=O)O)NC(=O)[C@H](CC(C)C)NC(=O)[C@H](CC(C)C)NC(=O)[C@@H](NC(=O)[C@H](CO)NC(=O)[C@H](Cc1ccc(O)cc1)NC(=O)[C@H](CC(=O)O)NC(=O)[C@H](CO)NC(=O)[C@@H](NC(=O)[C@H](Cc1ccccc1)NC(=O)[C@@H](NC(=O)CNC(=O)[C@H](CCC(=O)O)NC(=O)C(C)(C)NC(=O)[C@@H](N)Cc1ccc(O)cc1)[C@@H](C)O)[C@@H](C)O)[C@@H](C)CC)[C@@H](C)O)[C@@H](C)CC)C(=O)N[C@@H](CCC(=O)O)C(=O)NCC(=O)NCC(=O)N1CCC[C@H]1C(=O)N[C@@H](CO)C(=O)N[C@@H](CO)C(=O)NCC(N)=O [Example 321] (H-Y[Aib]EGTFTSDYSILLDKK([AEEA-AEEA-γGlu-C18 diacid])AQ[Aib]TFIEYLIEGGPSSG-NH2)
